Laboratory results reported in patent publication US8436014B2, “Solid forms of N-(4-(7-azabicyclo[2.2.1]heptan-7-yl)-2-(trifluorormethyl)phenyl)-4-oxo-5-(trifluoromethyl)-1,4-dihyroquinoline-3-carboxamide” (Vertex Pharmaceutical Incorporated, priority 2008, dated 2013).

Target: T1, ΔF508-CFTR (Homo sapiens, UniProt P13569, DEL508-508)
T1 construct: expressed in transfected cells
Experiment: Membrane potential optical assay for ΔF508-CFTR potentiation (FLIPR III, voltage sensing dyes)
Type: cell-based
Details: assay not named in the result sentence
Text: Membrane Potential Optical Methods for Assaying ΔF508-CFTR Modulation Properties of Compounds
The assay utilizes fluorescent voltage sensing dyes to measure changes in membrane potential using a fluorescent plate reader (e.g., FLIPR III, Molecular Devices, Inc.) as a readout for increase in functional ΔF508-CFTR in NIH 3T3 cells. The driving force for the response is the creation of a chloride ion gradient in conjunction with channel activation by a single liquid addition step after the cells have previously been treated with compounds and subsequently loaded with a voltage sensing dye.
To identify potentiators of ΔF508-CFTR, a double-addition HTS assay format was developed. This HTS assay utilizes fluorescent voltage sensing dyes to measure changes in membrane potential on the FLIPR III as a measurement for increase in gating (conductance) of ΔF508 CFTR in temperature-corrected ΔF508 CFTR NIH 3T3 cells. The driving force for the response is a Cl− ion gradient in conjunction with channel activation with forskolin in a single liquid addition step using a fluoresecent plate reader such as FLIPR III after the cells have previously been treated with potentiator compounds (or DMSO vehicle control) and subsequently loaded with a redistribution dye.
Solutions • Bath Solution #1: (in mM) NaCl 160, KCl 4.5, CaCl2 2, MgCl2 1, HEPES 10, pH 7.4 with NaOH. […]

T1 sequence (P13569 with tags, fused parts or gaps DEL508-508): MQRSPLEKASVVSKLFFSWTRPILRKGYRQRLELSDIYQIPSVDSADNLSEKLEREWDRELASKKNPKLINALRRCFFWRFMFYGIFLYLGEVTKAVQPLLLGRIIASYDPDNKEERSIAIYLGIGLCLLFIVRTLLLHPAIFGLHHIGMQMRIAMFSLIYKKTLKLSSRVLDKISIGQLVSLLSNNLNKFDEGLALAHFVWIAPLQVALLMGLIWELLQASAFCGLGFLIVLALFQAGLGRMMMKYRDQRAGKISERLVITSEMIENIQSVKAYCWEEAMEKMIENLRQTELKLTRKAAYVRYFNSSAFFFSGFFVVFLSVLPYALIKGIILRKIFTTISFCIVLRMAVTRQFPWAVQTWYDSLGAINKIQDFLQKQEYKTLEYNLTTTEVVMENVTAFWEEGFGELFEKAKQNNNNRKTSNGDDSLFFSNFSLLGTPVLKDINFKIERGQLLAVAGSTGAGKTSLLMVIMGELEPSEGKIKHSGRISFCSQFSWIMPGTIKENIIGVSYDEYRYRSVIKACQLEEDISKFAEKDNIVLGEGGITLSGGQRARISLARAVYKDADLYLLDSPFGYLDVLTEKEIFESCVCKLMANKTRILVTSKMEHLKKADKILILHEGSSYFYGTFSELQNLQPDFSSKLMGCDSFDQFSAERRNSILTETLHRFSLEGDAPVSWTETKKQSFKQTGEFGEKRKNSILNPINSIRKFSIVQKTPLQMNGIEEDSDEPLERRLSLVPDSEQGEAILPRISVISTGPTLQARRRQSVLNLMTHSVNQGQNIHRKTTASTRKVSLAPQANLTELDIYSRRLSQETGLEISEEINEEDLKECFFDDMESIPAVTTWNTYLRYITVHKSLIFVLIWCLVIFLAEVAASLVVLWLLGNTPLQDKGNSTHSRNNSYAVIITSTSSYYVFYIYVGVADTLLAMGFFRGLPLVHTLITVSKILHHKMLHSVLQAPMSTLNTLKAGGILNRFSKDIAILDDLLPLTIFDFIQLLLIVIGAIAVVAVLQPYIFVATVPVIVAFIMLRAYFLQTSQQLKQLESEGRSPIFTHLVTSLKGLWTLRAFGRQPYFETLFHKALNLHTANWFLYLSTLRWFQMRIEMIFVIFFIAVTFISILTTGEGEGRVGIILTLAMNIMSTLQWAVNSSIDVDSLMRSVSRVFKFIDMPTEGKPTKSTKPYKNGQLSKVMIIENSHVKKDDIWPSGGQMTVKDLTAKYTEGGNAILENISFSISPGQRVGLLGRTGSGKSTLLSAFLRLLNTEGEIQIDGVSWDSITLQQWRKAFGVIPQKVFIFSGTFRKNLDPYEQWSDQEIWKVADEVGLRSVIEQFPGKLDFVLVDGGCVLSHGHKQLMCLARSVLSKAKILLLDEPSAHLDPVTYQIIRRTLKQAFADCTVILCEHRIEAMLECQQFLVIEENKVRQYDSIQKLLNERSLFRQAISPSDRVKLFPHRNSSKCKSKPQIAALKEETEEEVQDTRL

Compound O=C(Nc1ccc(N2C3CCC2CC3)cc1C(F)(F)F)c1c[nH]c2cccc(C(F)(F)F)c2c1=O [Compound 1 Form A, N-(4-(7-azabicyclo[2.2.1]heptan-7-yl)-2-(trifluoromethyl)phenyl)-4-oxo-5-(trifluoromethyl)-1,4-dihydroquinoline-3-carboxamide] has an EC50 of under 2000 nM.
